According to patent publication US20250099534A1, “UBIQUITIN HIGH AFFINITY CYCLIC PEPTIDES AND METHODS OF USE THEREOF” (TECHNION RESEARCH & DEVELOPMENT FOUNDATION LIMITED, priority 2022, published 2025):
Like-named read-outs stand apart in the source and are kept apart here. Starred links: 1 amine or outer side, 2 acyl side, 3 side chain; linkers in the order of their positions; H or OH if unused. Positions of bridges follow the written chain, without caps; N, C: chain ends. Residues, ends and D or L forms follow the SMILES beside them. *: point of attachment. Fluorescein(5-Mal) = O=C1OC2(c3ccc(O)cc3Oc3cc(O)ccc32)c2ccc(N3C(=O)CC(*)C3=O)cc21; X2 = CN(C)c1ccc2c(c1)Oc1cc(N(C)C)ccc1C21OC(=O)c2cc(N3C(=O)CC(*)C3=O)ccc21; X1 = O=C(c1cccc(C[*:2])c1)[*:1]

Experiments:
[1] = Solubility in buffer (aq.) medium; type: physicochemical
[2] = tested on: U2OS cells; test: Cell uptake studies by live-cell confocal microscopy; conditions: 2 μM
Description: (§1) Cells were seeded for 24 h on ibidi 8 well μ-slides treated with poly-L-lysine to reach ˜90% confluency. Cells were then washed three times with warm PBS followed by incubation for 1 h with warm serum-free medium (DMEM) containing peptides. Thereafter, cells were washed two times with warm PBS. Prior to imaging, cells were washed with an optical culture medium and stained with Hoechst (2 μg/ml). Live cell CLSM images were captured using Confocal Zeiss LSM 710 equipped with 40×NA 1.2 water immersion objective lens using a 1 AU pinhole settings. Different lasers were used for the different tags (Hoechst, TAMRA, FITC), and during analysis, the μ-slide was kept at 37° C. in a humidified chamber.

[3] = tested on: U2OS cells
Description: as §1

CC[C@H](C)[C@@H]1NC(=O)[C@H](Cc2c[nH]c3ccccc23)NC(=O)[C@H]([C@@H](C)CC)NC(=O)[C@H](CC(C)C)NC(=O)[C@H](CS)NC(=O)c2cccc(c2)CSC[C@@H](C(=O)NCC(N)=O)NC(=O)[C@H](CC(C)C)NC(=O)[C@H]([C@@H](C)CC)NC(=O)[C@H](Cc2ccc(O)cc2)NC(=O)[C@@H]2CCCN2C(=O)[C@H](CC(N)=O)NC(=O)[C@H](CCCCN)NC(=O)[C@H](CO)NC(=O)[C@H](CO)NC(=O)CNC1=O [cyclic peptide 2] (CLIWIGSSKNPYILCG-NH2; linker N-15 via X1)
aqueous solubility [1]: poor aqueous solubility

CC[C@H](C)[C@@H]1NC(=O)[C@H](Cc2c[nH]c3ccccc23)NC(=O)[C@H]([C@@H](C)CC)NC(=O)[C@H](CC(C)C)NC(=O)[C@H](CS)NC(=O)c2cccc(c2)CSC[C@@H](C(=O)NCC(=O)N[C@@H](C)C(=O)N[C@@H](CSC2CC(=O)N(c3ccc4c(c3)C(=O)OC43c4ccc(N(C)C)cc4Oc4cc(N(C)C)ccc43)C2=O)C(N)=O)NC(=O)[C@H](CC(C)C)NC(=O)[C@H]([C@@H](C)CC)NC(=O)[C@H](Cc2ccc(O)cc2)NC(=O)[C@@H]2CCCN2C(=O)[C@H](CC(N)=O)NC(=O)[C@H](CCCCN)NC(=O)[C@H](CO)NC(=O)[C@H](CO)NC(=O)CNC1=O (stereo partly drawn) [cyclic peptide 26] (CLIWIGSSKNPYILCGAC(X2)-NH2; linker N-15 via X1)
cell-permeability / delivery to live cells [2]: efficient cell-permeability

CC[C@H](C)[C@@H]1NC(=O)[C@H](Cc2c[nH]c3ccccc23)NC(=O)[C@H]([C@@H](C)CC)NC(=O)[C@H](CC(C)C)NC(=O)[C@H](CS)NC(=O)c2cccc(c2)CSC[C@@H](C(=O)NCC(=O)N[C@@H](C)C(=O)N[C@@H](CSC2CC(=O)N(c3ccc4c(c3)C(=O)OC43c4ccc(O)cc4Oc4cc(O)ccc43)C2=O)C(N)=O)NC(=O)[C@H](CC(C)C)NC(=O)[C@H]([C@@H](C)CC)NC(=O)[C@H](Cc2ccc(O)cc2)NC(=O)[C@@H]2CCCN2C(=O)[C@H](CC(N)=O)NC(=O)[C@H](CCCCN)NC(=O)[C@H](CO)NC(=O)[C@H](CO)NC(=O)CNC1=O (stereo partly drawn) [cyclic peptide 29] (CLIWIGSSKNPYILCGAC(Fluorescein(5-Mal))-NH2; linker N-15 via X1)
cell-permeability / delivery to live cells [3]: did not observe an efficient delivery
